Measurements from patent US11505521B2 (Biothea Pharma, Inc., priority 2018, dated 2022).
Structures can show the parent of a compound that is named as a salt. Where two headings read alike, the source gives them in different places.

Experiments:
[1] = sublingual tablet of Example 3, 10 mg epinephrine base, receptor pH 7.4, 37° C.
Protocol: The in-vitro permeability of the pharmaceutical compositions of Example 3 were tested. The tests were conducted using drug transdermal diffusion test instruments (Brand Huanghai, Model No. RJY-6B), Sartorius balances (Model SQP), an INESA pH meter (Model PHS-3E), a Thermo HPLC (UltiMate 3000 System, UV Wavelength: 205 nm), and Phenomenex Luna columns (5 μm C18 (2), 4.6×250 mm). The column temperature was 40° C. and the autosampler temperature was room temperature. The injection volume was 5 μL.
(§1) Mobile Phase A was prepared by weighing 4.0 g tetramethylammonium bisulfate (MERYER, Batch No. 77957139) and 1.1 sodium 1-heptasulfonate (Admas-beta, Batch No. P1343755), and transferring the materials to a flask. 2 mL of 0.1 mol/L EDTA solution (Brand: Sinopharm Chemical Reagent Co., Ltd., Batch No. 20150410) was added to the flask and the volume was adjusted to 950 mL using water. The solution was mixed and adjusted to a pH of 3.5 with 0.1N sodium hydroxide solution (Brand: Enox, Batch No. 20161201). Mobile Phase B was prepared using methanol. The isocratic elution was used in a proportion of A/B of 85/15. The run time was 10 minutes.
The in vitro diffusion of epinephrine salts were evaluated using Franz cells with an OD of 20 mm and reservoir volume of 7 mL. Dialysis membranes (Spectra/Por® dialysis membranes with 1,000 Da MWCO) were used to simulate sublingual mucous membrane in the vitro permeability tests. The assay content of the active components was detected in receiving pools. A receptor chamber with a magnetic stirrer was filled with phosphate buffer solution (pH 7.4) as the diffusion medium. The water bath was set at 37° C., and water was circulated in the Franz cells.
Each tablet was placed at the center of the donor chamber on the membrane at T0, and 2 mL of the artificial saliva (Brand: Biomart, Brand No. GL0305) was added to facilitate tablet disintegration and dissolution. Aliquots of 1 mL were withdrawn from the receptor chamber at 10, 30, 60, 90, and 120 min. The volumes withdrawn were replenished with fresh medium. Samples were transferred to HPLC vials for HPLC analysis.

[2] = Protocol: The stability of the pharmaceutical compositions of Example 3 were tested. The stability studies were conducted on packaged epinephrine salts at 25° C./RH 60% and 40° C./RH 75% conditions, as well as samples without packaging and exposed to light (4500 Lux) for one month. The appearance, assay content, and related substances were examined at 5, 7, 14 and 30 days.
(§2) The assay content was tested using Sartorius balances (Model SQP), an INESA pH meter (Model PHS-3E), a Thermo HPLC (UltiMate 3000 System, UV Wavelength: 205 nm), and Phenomenex Luna columns (5 μm C18 (2), 4.6×250 mm). The column temperature was 40° C., and the autosampler temperature was room temperature. The injection volume was 5 μL.
as §1
The assay content was analyzed by dissolving 20 mg of each sample to be examined in 50 mL of Mobile Phase A (0.4 mg/mL) as assay test solution. The sample was used and tested right after it was ready and was protected from light.
as §2, with “purity” for “assay content”, “PhenomenexSynergi” for “Phenomenex Luna”, “(4” for “(5”, “Polar-RP 80 A 250×4.6” for “C18 (2), 4.6×250”, “30°” for “40°”
Mobile Phase A was prepared by weighing 1.136 g of potassium dihydrogen orthophosphate (Brand: CNW, Batch No. A1040040) and 1.74 g of dipotassium hydrogen orthophosphate (Brand: Ourchem, Batch No. 20160219) and transferring into 1000 mL of water. The pH was adjusted to 3.0±0.05 with orthophosphoric acid (Brand: Ourchem, Batch No. 4112K060). The solution was filtered through a 0.45 μm membrane and degassed. Mobile Phase B was prepared using methanol. The run time was 50 minutes.
The purity was analyzed by dissolving 10 mg of each sample to be examined in 25 mL of Mobile Phase A (0.4 mg/mL) as purity and related substance test solution. The sample was used and tested right after it was ready and was protected from light.

physchem [3] = experiment: physchem
Protocol: (§3) The tests were conducted using Sartorius balances (Model SQP), a Thermo HPLC (UltiMate 3000 System, UV Wavelength: 205 nm), and Phenomenex Luna columns (5 μm C18 (2), 4.6×250 mm). The column temperature was 40° C. and the autosampler temperature was room temperature. The injection volume was 5 μL.
as §1, with “using ethanol.” for “using methanol.”, “was 8” for “was 10”
A standard solution was used comprising 10 mg of the standard dissolved in 10 mL of water. The test solution solutions were prepared and water was added at 25±2° C. Every 5 minutes, the solution was sonicated for 30 seconds. The dissolution was observed within 30 minutes to make sure the solution was saturated. The solution was filtered through a 0.45 μm membrane and the solution was diluted to test.

[4] = 20 mg in 20 mL water, 25° C.
Protocol: The tests were conducted using Sartorius balances (Model SQP) and a pH meter (Brand: INESA, Model No. PHS-3E). 20 mg of the sample was weighed and transferred into a 20 mL volumetric flask with the remainder of the volume comprising water. The solution was mixed. The pH meter was calibrated with pH 4.0 and pH 6.8 standard buffer solutions at 25° C.

physchem [5] = conditions: titrated with 0.1 mol/L NaOH
Protocol: The tests were conducted using Sartorius balances (Model SQP) and a potentiometric titrator (Brand: Methrom, Model No. 905 Titrando). 0.17 g of the sample was weighed and transferred into a 50 mL volumetric flask with the remainder of the volume comprising deonized water. The solution was mixed. The solution was titrated with a 0.1 mol/L NaOH solution using a pH indicator to indicate the end point.

physchem [6] = conditions: n-octanol / pH 3.47 buffer
Protocol: as §3
as §1, with “using ethanol.” for “using methanol.”, “was 8” for “was 10”
A hydrogen disodium phosphate solution was prepared by weighing 7.1 g of hydrogen disodium phosphate (Brand: Sinopharm Chemical Reagent Co., Ltd., Batch No. 20150910). A citric acid solution was prepared by weighing 5.25 g of hydrated citric acid (Brand: General-Reagent, Batch No. 5949-29-1) and dissolving it in 1000 mL of water. A pH 3.47 buffer solution was prepared by adjusting the pH of the hydrogen disodium phosphate solution to 3.47 with the citric acid solution. An n-octanol buffer solution was prepared by mixing 100 mL of n-octanol (Brand: Chinasun Specialty Products Co., Ltd., Batch No. 20160601) and 100 mL of the pH 3.47 buffer solution, vibrated for 24 hours, which sat for an hour to separate the n-octanol phase and the pH 3.47 buffer phase.
10 mg of the sample was dissolved in 10 mL of the saturated n-octanol solution and mixed completely. 10 mL of the saturated pH 3.47 buffer solution was added and vortexed at 3000 r/min for 1 hour. 1 mL of solution was pipetted from the n-octanol and pH 3.47 phase after an hour. A standard solution was prepared containing 1 mg/mL of the standard in diluent. An LOQ solution was prepared from about 0.1% of the standard solution. An n-octanol phase solution was diluted with 1 mL of methanol to test. The pH 3.47 phase solution was injected directly. The partition coefficient was calculated using the following formula:
[formula] wherein Co is the equilibrium concentration of solute in oil phase, and Cw is the equilibrium concentration of solute in water phase.

[7] = light 4500 Lux, under air, 5 days
[8] = light 4500 Lux, under air, 7 days
[9] = light 4500 Lux, under air, 14 days
[10] = light 4500 Lux, under air, 30 days

What does the source list for `CNC[C@H](O)c1ccc(O)c(O)c1` [epinephrine base, epinephrine]?
Diffusion content (%) 120 min [1]: 10.5%; Related substance (%) ([2]; 25° C./60% RH, 0 days): 0.13%; Content (%) ([2]; 25° C./60% RH, 5 days): 100.03%; Related substance (%) ([2]; 25° C./60% RH, 5 days): 0.14%; Content (%) ([2]; 25° C./60% RH, 7 days): 99.73%; Related substance (%) ([2]; 25° C./60% RH, 7 days): 0.14%; Content (%) ([2]; 25° C./60% RH, 14 days): 99.84%; Related substance (%) ([2]; 25° C./60% RH, 14 days): 0.12%; Content (%) ([2]; 25° C./60% RH, 30 days): 99.78%; Related substance (%) ([2]; 25° C./60% RH, 30 days): 0.14%; Related substance (%) ([2]; 40° C./75% RH, 0 days): 0.13%; Related substance (%) ([2]; 40° C./75% RH, 5 days): 0.16%; Content (%) ([2]; 40° C./75% RH, 7 days): 100.67%; Related substance (%) ([2]; 40° C./75% RH, 7 days): 0.15%; Content (%) ([2]; 40° C./75% RH, 14 days): 98.97%; Related substance (%) ([2]; 40° C./75% RH, 14 days): 0.17%; Content (%) ([2]; 40° C./75% RH, 30 days): 100.62%; Related substance (%) ([2]; 40° C./75% RH, 30 days): 0.20%; Related substance (%) ([2]; light 4500 Lux, under air, 0 days): 0.13%; Content (%) [2, 7]: 100.53%; Related substance (%) [2, 7]: 0.15%; Content (%) [2, 8]: 99.27%; Related substance (%) [2, 8]: 0.18%; Content (%) [2, 9]: 99.21%; Related substance (%) [2, 9]: 0.18%; Content (%) [2, 10]: 98.24%; Related substance (%) [2, 10]: 0.21%

Which “Diffusion content (%) 120 min” value ([1]; hydrochloride) does the source give for `CNC[C@H](O)c1ccc(O)c(O)c1` [epinephrine hydrochloride] here?
Its value is 44.0%.

Which “Solubility” value (physchem [3]; water, 25±2° C.) does the source give for epinephrine fumarate here?
Its value is 38.9 mg/mL.

What about the pH [4] of the same compound?
The pH was 3.77.

What about the pKa (physchem [5]) of the same compound?
The pKa was 4.28.

And the LogP (physchem [6])?
Its LogP is −3.00.

What about the “Diffusion content (%) 120 min” value [1] of the same compound?
Its value is 54.4%.

Which “Solubility” value (physchem [3]) does the source give for epinephrine hemi sulfate here?
The value was 17.7 mg/mL.

What about the pH [4] of the same compound?
Its pH is 7.14.
